Data set [1] concerns human CD34-positive endothelial progenitor cells (EPC). The data set is described as follows: Pro-angiogenic test: EPC cell growth. Type of data set: cell-based. Particulars: mean±SEM. The procedure: (§1) Endothelial cell culture: Isolation and culture of human CD34-positive endothelial progenitor cells (EPC) were performed using conventional methods (Chen et al., 2018); human umbilical vein endothelial cells (HUVECs) were purchased from Promo Cell (Heidelberg, Germany); and EPCs and HUVECs were maintained in MV2 medium according to a known protocol (Chung et al., 2013).
(§2) Measurement of cell growth: EPCs and HUVECs were cultured overnight at a density of 5×10^3 cells per well in a 96-well plate, and then, in the presence of the test specimen (that is, maca extract), the original medium was replaced with MV2 minimal medium and incubated for 48 hours. The measurements on EPC cell growth were as described in Yang et al., 2019.
(§3) The results are shown in Table 1 as below, in which corresponding results are indicated as mean±SEM (the test was repeated 3 times as a whole), wherein, compared to the control group (DSMO), * denotes p<0.05, ** denotes p<0.01, *** denotes p<0.001; and - denotes being untested.

Data set [2] concerns human umbilical vein endothelial cells (HUVECs). The data set is described as follows: Pro-angiogenic test: HUVEC cell growth. Type of data set: cell-based. The note with it: VEGF 20 ng/mL, positive control, mean±SEM. The procedure: as §1, §2, §3
For data set [3], the system named is RBL-2H3 cells. The data set is described as follows: Anti-allergy test: A23187-induced β-hexosaminidase release. Type of data set: cell-based. The procedure:
(§4) Equivalently divided supernatants (50 μL) of control wells and experimental wells were incubated with an equal volume (50 μL) of […] p-NAG prepared in 0.1 M citrate buffer (pH 4.5), in which the buffer is formed as a matrix of released β-hexosaminidase; the reaction, after 1 hour incubation at 37° C., was stopped by adding 100 μL of termination buffer (0.1M Na2/NaHCO3, pH 10.0), and then, the absorbance at a wavelength of 405 nm was measured with a microplate reader. The percentage of inhibiting RBL-2H3 cells from releasing β-hexosaminidase was calculated as the percentage of control (untreated stimulated cells), and azelastine (20 μM) was used as a positive control. The test results are shown in Tables 4 to 6 below, and the corresponding results are indicated as mean±SEM (the test was repeated 3 times), wherein * denotes p<0.05, ** denotes p<0.01, *** denotes p<0.001; - denotes being untested; and N/A denotes that the specimen forms mycelium added to the medium, and accordingly, the results cannot be proven.

Data set [4] relates to human neutrophil. Put plainly: Anti-neutrophil inflammation test: superoxide anion generation. Type of data set: cell-based. The note with it: isolated compounds (10 μM) and positive controls 10 μM, fMLF/CB-activated neutrophils, mean±SEM. How it is done: (§5) Isolation of human neutrophil: According to the standard scheme of […] sedimentation, neutrophils was obtained from peripheral blood, and then, the neutrophils were purified by centrifugation and erythrocyte hypotonic degradation in a Ficoll-Hypaque gradient; and then, it was confirmed by the trypan blue exclusion test that the purified neutrophils contained more than 98% live cells, and the purified neutrophils were suspended in HBSS without calcium at 4° C. (Yang et al., 2013) prior to the test.
The level of superoxide anion generation by neutrophil activation was measured and determined based on the ferrocytochrome c reduction method according to Yang et al., 2013. In other words, human neutrophil cells (6×10^5 cells/mL) were mixed with 0.6 mg/mL of ferrocytochrome c and 1 mmol/L of CaCl at 37° C., and then the cells were treated with the test specimens having different concentrations (that is, maca extract) or DMSO (0.1% as control) for 5 minutes; thereafter, 10 minutes before activation with 100 nM of fMLF, the cells were incubated with cytochalasin B (1 μg/mL) for 3 minutes, changes in absorbance according to the decrease in ferrocytochrome c at a wavelength of […] with continuous stirring were continuously monitored using a spectrophotometer, and reactions were calculated with and without superoxide dismutase (SOD, 100 U/mL) with dividing by the extinction coefficient of the decreased ferrocytochrome c (21.1 mM^−1 cm^−1) reduction, thereby obtaining the difference value.

Data set [5] concerns RBL-2H3 cells. Put plainly: Anti-allergy test: antigen-induced β-hexosaminidase release. Type of data set: cell-based. How it is done: as §4
The test system of data set [6] is human neutrophil. Put plainly: Anti-neutrophil inflammation test: elastase release. Type of data set: cell-based. The note with it: isolated compounds (10 μM) and positive controls 10 μM, fMLF/CB-activated neutrophils, mean±SEM. The procedure: as §5
The elastase release was used to measure degranulation of azurophilic granules in activated neutrophils (Yang et al., 2013); and the measurement was performed using methoxysuccinyl-Ala-Ala-Pro-Val-p-nitroaniline as an elastase matrix. At 37° C., neutrophils (6×10^5 cells/mL) were added to a mixture of matrix (100 μmol/L) and CaCl2 (1 mmol/L), and treated with the test specimens having different concentrations (that is, maca extract) or DMSO (0.1% as control) for 5 minutes, and then the cells were stimulated by using fMLF (100 nM)/CB (0.5 μg/mL), and changes in absorbance at the 405 nm wavelength were continuously monitored to measure the release of elastase, in which genistein and LY294002 were used as positive controls. The corresponding results are indicated as mean±SEM (the test was repeated 3 or 4 times), in which * denotes p<0.05, ** denotes p<0.01, *** denotes p<0.001; and - denotes being untested.

Data set [7] deals with RBL-2H3 cells.
Protocol: Cells were cultured using DMEM medium supplemented with 10% FBS, and additional 100 U/mL penicillin and 100 μg/mL streptomycin. The cells were cultured in 10 cm Petri dishes in a 5% CO2 incubator at 37° C., the cells were secondary cultured in 80% confluent trypsin, and then seeded on culture plates at a density of 2×10^5 cells/mL for secretion measurement.
Measurement on cell viability: RBL-2H3 cells were seeded in a 96-well plate at a concentration of 2×10^4 cells/well overnight, specimens having different concentrations (that is, maca extract, dissolved in DMSO) or untreated controls (1% DMSO in Tyrode buffer; 135 mM NaCl, 5 mM KCl, 1.8 mM CaCl, 1.0 mM MgCl2, 5.6 mM glucose, 20 mM HEPES and 1 mg/ml BSA, pH 7.4) were used to treat the cells, the media was removed from the wells after incubation at 37° C., 5% CO2, and an MTT solution (5 mg/mL) stock solution was diluted 1:10 in the medium and then added to the wells (100 μL per well); Thereafter, the cells were incubated at 37° C., 5% CO2 for 1 hours, the medium was removed, the formed Formazan crystals (which can be formed only in normal healthy cells) were dissolved in 100 μL DMSO, and the absorbance at 574 nm wavelength was measured using a microplate reader in which the plates were gently shaked before the measurement. Cell viability values for the specimens were calculated and indicated as a percentage (%) of the control groups (untreated cells).

Marks after values point to notes of the source that are not given here.

As to VEGF, the “Cell growth rate (%) EPC” value in data set [1] (VEGF 20 ng/mL, positive control) is 128 ± 2*** %. Also, the “Cell growth rate (%) HUVEC” value in data set [2] is listed as 122 ± 2*** %.

Take `O=Cc1cc[n+]([O-])cc1Cc1ccccc1` [Compound 7, 3-(benzyl)-1-(hydroxy)-4-aldehyde pyridine]: in the data set with RBL-2H3 cells [3] (10 μM/mL), the “Percentage of inhibiting A23187-induced β-hexosaminidase release (%) 10 μM/mL” value is reported as 2.0 ± 1.6%. Besides, the “Percentage of inhibiting A23187-induced β-hexosaminidase release (%) 100 μM/mL” value in the data set on RBL-2H3 cells [3] (100 μM/mL) is 6.0 ± 0.8%. Moreover, the “Percentage of inhibiting A23187-induced β-hexosaminidase release (%) 500 μM/mL” value in the data set with RBL-2H3 cells [3] (500 μM/mL) was found to be 18.0 ± 3.4%***. In the data set on RBL-2H3 cells [3] (Table 4, isolated compounds, concentration not given (values equal 100 μM column of Table 6)), the “A23187-induced β-hexosaminidase release Inhibition rate (%)” value stood at 6.0 ± 0.8%. Also, the “Inhibition rate (%) Superoxide anion generation” value with human neutrophil [4] is recorded as 10.94 ± 1.84 %. Moreover, the “Cell growth rate (%) EPC” value in data set [1] (50 μM of each isolated compound, 48 hours) came to 105 ± 3%. For the same molecule, in the data set with RBL-2H3 cells [5] (10 μM/mL), the “Percentage of inhibiting antigen-induced β-hexosaminidase release (%) 10 μM/mL” value was found to be 11.7 ± 2.6%. The “Percentage of inhibiting antigen-induced β-hexosaminidase release (%) 100 μM/mL” value in the data set on RBL-2H3 cells [5] (100 μM/mL) came out at 8.0 ± 1.2%. The “Percentage of inhibiting antigen-induced β-hexosaminidase release (%) 500 μM/mL” value with RBL-2H3 cells [5] (500 μM/mL) is given as 0.0 ± 0.0%. For the same molecule, the “Antigen-induced β-hexosaminidase release Inhibition rate (%)” value with RBL-2H3 cells [5] (Table 4, isolated compounds, concentration not given) worked out at 8.0 ± 1.2%. For the same molecule, in the data set with human neutrophil [6], the “Inhibition rate (%) Elastase release” value is 2.48 ± 3.05%. For the same molecule, the “Viability of RBL-2H3 cells at 200 μg/ml” value with RBL-2H3 cells [7] stood at 94.7%.

(Values after US11771729B2, “Maca extract and use thereof” (KAOHSIUNG MEDICAL UNIVERSITY, priority 2021, dated 2023).)
